{"source": "patent US20110306580A1", "about": "(DONG WHA PHARMACEUTICAL CO ., LTD., priority 2009, published 2011)", "key": {"ROS17/2.8 cells [1]": {"system": "ROS17/2.8 cells", "experiment": "Cell growth of ROS17/2.8 cells by BrdU uptake (Cell Proliferation Biotrak ELISA)", "type": "cell-based, rat", "conditions": "for Cell growth of ROS17/2.8 cells compared with Solution 1 (FIG. 1) / Cell growth of ROS17/2.8 cells compared with Solution 1 (FIG. 2): BrdU uptake, Dunnett multiple comparison test; for Product of relative indices of single agent addition group: Bürgi's method; for Relative index of BrdU uptake amount, Solution 3 (1α,25-dihydroxyvitamin D3 alone): 10^−4M 1α,25-dihydroxyvitamin D3 solution diluted 1000 fold", "protocol": "ROS17/2.8 cells were inoculated to a 96-well plate at a density of 2×10^4 cells/well. An αMEM medium to which 10% fetal calf serum had been added (referred to as the 10% FCS-αMEM, hereinafter) was used as a medium. After culture of the cells overnight, the medium was removed from each well, and an αMEM medium to which 0.5% fetal calf serum had been added (referred to as the 0.5% FCS-αMEM, hereinafter) was added. After culture of the cells for about six hours, the medium was removed from each well, and a 10% FCS-αMEM comprising DMSO and ethanol (referred to as Solution 1, hereinafter), a Compound 1 solution and ethanol (referred to as Solution 2, hereinafter), a 1α,25-dihydroxyvitamin D3 solution and DMSO (referred to as Solution 3, hereinafter) or the Compound 1 solution and the 1α,25-dihydroxyvitamin D3 solution (referred to as Solution 4, hereinafter) was added. The 10% FCS-αMEM comprising Solution 1 was prepared by diluting DMSO and ethanol by 1000 fold with the 10% FCS-αMEM. The 10% FCS-αMEM comprising Solution 2 was prepared by diluting a 10^−5M Compound 1 solution and ethanol by 1000 fold with the 10% FCS-αMEM. The 10% FCS-αMEM comprising Solution 3 was prepared by diluting a 10^−4M 1α,25-dihydroxyvitamin D3 solution and DMSO by 1000 fold with the 10% FCS-αMEM. The 10% FCS-αMEM comprising Solution 4 was prepared by diluting the 10^−5M Compound 1 solution and the 10^−4M 1α,25-dihydroxyvitamin D3 solution by 1000 fold with the 10% FCS-αMEM. After culture of the cells for about 24 hours, the effect of Compound 1 and 1α,25-dihydroxyvitamin D3 on the cell growth of the ROS17/2.8 cells was evaluated using Amersham Cell Proliferation Biotrak ELISA system, version 2 (manufactured by GE healthcare bioscience K.K., Code No. RPN250). Namely, growing cells were made take 5-bromo-2′-deoxyuridine (BrdU) into the cells, and the cells were detected by ELISA using peroxidase-labeled anti-BrdU antibodies. The amount of BrdU taken into the cells was determined by measuring absorbance (450 nm) of the solution by a microplate reader.\nThe BrdU uptake amount in each solution addition group was obtained in terms of a percentage to the average value of the BrdU uptake amount in four wells in a Solution 1 addition group. The graph was made using the average value±standard error of the four wells of each solution addition group.\nIn the Bürgi's method, the value of a standard group is […] the values of each treated group to obtain a relative index. […] If they are the same, it is determined that there is an added action. In contrast, if the value of the combination treatment group is poor, it is determined that there is an antagonistic action.\nROS17/2.8 cells were inoculated to a 96-well plate at a density of 5×10^3 cells/well. The 10% FCS-αMEM was used as a medium. After culture of the cells overnight, the medium was removed from each well, and the 0.5% FCS-αMEM was added. After culture of the cells for about six hours, the medium was removed from each well, and the 10% FCS-αMEM comprising DMSO and ethanol (referred to as Solution 1, hereinafter), a Compound 11 solution and ethanol (referred to as Solution 5, hereinafter), the 1α,25-dihydroxyvitamin D3 solution and DMSO (referred to as Solution 3, hereinafter) or the Compound 11 solution and the 1α,25-dihydroxyvitamin D3 solution (referred to as Solution 6, hereinafter) was added. The 10% FCS-αMEM comprising Solution 1 was prepared by diluting DMSO and ethanol by 1000 fold with the 10% FCS-αMEM. The 10% FCS-αMEM comprising Solution 5 was prepared by diluting a 10^−5M Compound 11 solution and ethanol by 1000 fold with the 10% FCS-αMEM. The 10% FCS-αMEM comprising Solution 3 was prepared by diluting a 10^−4M 1α,25-dihydroxyvitamin D3 solution and DMSO by 1000 fold with the 10% FCS-αMEM."}, "ROS17/2.8 cells [2]": {"system": "ROS17/2.8 cells", "experiment": "Cell growth of ROS17/2.8 cells by the MTT method (formed formazan)", "type": "cell-based, rat", "protocol": "100 μL of a 10% FCS-αMEM comprising either DMSO and ethanol (referred to as Solution 7, hereinafter), a Test Compound solution and ethanol (referred to as Solution 8, hereinafter), a 1α,25-dihydroxyvitamin D3 solution and DMSO (referred to as Solution 9, hereinafter) or a Test Compound solution and the 1α,25-dihydroxyvitamin D3 solution (referred to as Solution 10, hereinafter) was dispensed. The ROS17/2.8 cells were inoculated to a medium at a density of 5×10^3 cells/100 μL/well. After culture of the cells for about 48 hours, the effect of Test Compound and 1α,25-dihydroxyvitamin D3 on the cell growth of the ROS17/2.8 cells was evaluated using the MTT method. Namely, after culture of the cells for about 44 hours, an MTT solution (3-[4,5-dimethylthiazol-2-yl]-2,5-diphenyltetrazolium bromide 2 mg/mL) was added in an amount of 25 μL/well, and the cells were further cultured for four hours. After the medium was removed, DMSO was added in an amount of 100 μL/well so as to dissolve the formed formazan. The amount of the formed formazan was determined by measuring the absorbance (at 560 nm) of the solution by a microplate reader.\nThe 10% FCS-αMEM comprising Solution 7 was prepared by diluting DMSO by 1000 fold with the 10% FCS-αMEM, and diluting ethanol by 10000 fold with the 10% FCS-αMEM. The 10% FCS-αMEM comprising Solution 8 was prepared by diluting a 2×10^−5M Test Compound solution by 1000 fold with the 10% FCS-αMEM, and diluting ethanol by 10000 fold with the 10% FCS-αMEM. The 10% FCS-αMEM comprising Solution 9 was prepared by diluting 2×10^−3M 1α,25-dihydroxyvitamin D3 solution by 10000 fold with the 10% FCS-αMEM, and diluting DMSO by 1000 fold with the 10% FCS-αMEM. The 10% FCS-αMEM comprising Solution 10 was prepared by diluting a 2×10^−5M Test Compound solution by 1000 fold with the 10% FCS-αMEM, and diluting 2×10^−3M 1α,25-dihydroxyvitamin D3 solution by 10000 fold with the 10% FCS-αMEM.\nThe amount of the formed formazan in each solution addition group was obtained in terms of a percentage to the average value of the amounts of formed formazan in four wells in a Solution 7 addition group. All the determined values were shown in terms of the average value±standard deviation of the four wells of each solution addition group."}, "[3]": {"conditions": "amount of formed formazan, Solution 7 = 1.00"}}}
{"smiles": "Cc1nc(-c2ccc(OCCCCCOc3ccc(/C(N)=N/O)cc3)cc2)c(C(C)C)s1", "note": "[Compound 1, N-hydroxy-4-{5-[4-(5-isopropyl-2-methyl-1,3-thiazol-4-yl)phenoxy]pentoxy}benzamidine]", "values": [{"measurement": "Relative index of BrdU uptake amount, Solution 2 (Compound 1 alone)", "setting": "ROS17/2.8 cells [1]; Example 1, 2×10^4 cells/well, 10^−5M Compound 1 solution diluted 1000 fold, about 24 hours, Solution 1 = 1.000", "value": 1.011}, {"measurement": "Cell growth of ROS17/2.8 cells compared with Solution 1 (FIG. 1)", "setting": "ROS17/2.8 cells [1]; Example 1", "value": "not significantly different"}, {"measurement": "Product of relative indices of single agent addition group", "setting": "ROS17/2.8 cells [1]; Example 1, Compound 1 alone × 1α,25-dihydroxyvitamin D3 alone", "value": 1.233}]}
{"smiles": "CCCN(CCC)c1nc(-c2ccc(OCCCCCOc3ccc(/C(N)=N/O)cc3)cc2)c(CC)s1", "note": "[Compound 11, N-hydroxy-4-{5-[4-(2-dipropylamino-5-ethyl-1,3-thiazol-4-yl)phenoxy]pentoxy}benzamidine]", "values": [{"measurement": "Relative index of BrdU uptake amount, Solution 5 (Compound 11 alone)", "setting": "ROS17/2.8 cells [1]; Example 2, 5×10^3 cells/well, 10^−5M Compound 11 solution diluted 1000 fold, about 24 hours, Solution 1 = 1.000", "value": 1.023}, {"measurement": "Cell growth of ROS17/2.8 cells compared with Solution 1 (FIG. 2)", "setting": "ROS17/2.8 cells [1]; Example 2", "value": "not significantly different"}, {"measurement": "Product of relative indices of single agent addition group", "setting": "ROS17/2.8 cells [1]; Example 2, Compound 11 alone × 1α,25-dihydroxyvitamin D3 alone", "value": 1.223}, {"measurement": "activity at 0.02 µM", "setting": "ROS17/2.8 cells [2]; Rattus norvegicus, percentage to Solution 7 addition group, 2×10^−5M Test Compound solution diluted 1000 fold, about 48 hours, average ± standard deviation of four wells, read-out: Amount of formed formazan, Solution 8 (Test Compound alone)", "value": "103 ± 2.4", "unit": "%"}, {"measurement": "Relative index of Solution 10 (a group of a drug combination)", "setting": "ROS17/2.8 cells [2]; Test Compound in combination with 1α,25-dihydroxyvitamin D3, amount of formed formazan, Solution 7 = 1.00", "value": 1.15}, {"measurement": "Amount of formed formazan, Solution 10 (a group of a drug combination)", "setting": "ROS17/2.8 cells [2]; Test Compound in combination with 1α,25-dihydroxyvitamin D3, percentage to Solution 7 addition group, about 48 hours, average ± standard deviation of four wells", "value": "115 ± 4.4 # %"}, {"measurement": "Relative index of Solution 8 (Test Compound alone)", "setting": "ROS17/2.8 cells [2]; [3]", "value": 1.03}]}
{"smiles": "C=C1/C(=C\\C=C2/CCC[C@]3(C)[C@@H]([C@H](C)CCCC(C)(C)O)CC[C@@H]23)C[C@@H](O)C[C@@H]1O", "note": "[1α,25-dihydroxyvitamin D3, reference compound]", "values": [{"measurement": "Relative index of BrdU uptake amount, Solution 3 (1α,25-dihydroxyvitamin D3 alone)", "setting": "ROS17/2.8 cells [1]; Example 1, 2×10^4 cells/well, about 24 hours, Solution 1 = 1.000", "value": 1.220}, {"measurement": "Cell growth of ROS17/2.8 cells compared with Solution 1 (FIG. 1)", "setting": "ROS17/2.8 cells [1]; Example 1", "value": "not significantly different"}, {"measurement": "Relative index of BrdU uptake amount, Solution 3 (1α,25-dihydroxyvitamin D3 alone)", "setting": "ROS17/2.8 cells [1]; Example 2, 5×10^3 cells/well, about 24 hours, Solution 1 = 1.000", "value": 1.195}, {"measurement": "Cell growth of ROS17/2.8 cells compared with Solution 1 (FIG. 2)", "setting": "ROS17/2.8 cells [1]; Example 2", "value": "not significantly different"}, {"measurement": "Relative index of Solution 9 (1α,25-dihydroxyvitamin D3 alone)", "setting": "ROS17/2.8 cells [2]; [3]", "value": 1.05}, {"measurement": "Amount of formed formazan, Solution 9 (1α,25-dihydroxyvitamin D3 alone)", "setting": "ROS17/2.8 cells [2]; percentage to Solution 7 addition group, 2×10^−3M 1α,25-dihydroxyvitamin D3 solution diluted 10000 fold, about 48 hours, average ± standard deviation of four wells", "value": "105 ± 3.1", "unit": "%"}]}
